Measured values reported in the NIST ThermoML archive (doi:10.1016/j.jct.2007.05.011).

Test: xn = mol fraction of the nth substance listed
Conditions: 101 kPa, Liquid; for mass density: Vibrating tube method

NCCO.O=CO [2-hydroxyethylammonium formate] + O
Conditions | mass density, 315.65 K [kg/m3] | mass density, 318.15 K [kg/m3] | mass density, 320.65 K [kg/m3] | mass density, 323.15 K [kg/m3] | speed of sound, 315.65 K [m/s] | speed of sound, 318.15 K [m/s] | speed of sound, 320.65 K [m/s] | speed of sound, 323.15 K [m/s]
x2 = 0 | – | 1162.29 | 1160.51 | 1158.73 | 1666.7 | 1660.8 | 1654.8 | 1648.9
x2 = 0.047 | – | 1163.18 | 1161.55 | 1159.94 | 1703.3 | 1698.3 | 1693.3 | 1688.4
x2 = 0.108 | – | 1161.88 | 1160.25 | 1158.62 | 1705.2 | 1700.2 | 1695.3 | 1690.5
x2 = 0.199 | – | 1158.96 | 1157.34 | 1155.72 | 1707.2 | 1702.4 | 1697.5 | 1692.7
x2 = 0.311 | – | 1154.16 | 1152.53 | 1150.91 | 1709.4 | 1704.7 | 1699.9 | 1695.2
x2 = 0.4 | – | 1149.34 | 1147.7 | 1146.05 | 1709.8 | 1705.2 | 1700.6 | 1696
x2 = 0.492 | 1144.56 | 1142.94 | 1141.31 | 1139.69 | 1710 | 1705.6 | 1701.2 | 1696.8
x2 = 0.601 | 1134.13 | 1132.52 | 1130.9 | 1129.29 | 1707.6 | 1703.6 | 1699.5 | 1695.4
x2 = 0.699 | 1120.4 | 1118.82 | 1117.22 | 1115.62 | 1703.7 | 1700.2 | 1696.5 | 1692.8
x2 = 0.8 | 1098.86 | 1097.33 | 1095.78 | 1094.23 | 1687.8 | 1685.1 | 1682.4 | 1679.5
x2 = 0.9 | 1062.35 | 1060.95 | 1059.54 | 1058.12 | 1647.5 | 1646.7 | 1645.7 | 1644.6
x2 = 0.95 | 1033.42 | 1032.17 | 1030.89 | 1029.58 | 1604.9 | 1605.8 | 1606.4 | 1606.8
